Literature values as cited in patent US20250367363A1, “METHODS OF LOCAL IRRIGATION FOR TREATING INFECTIONS” (Osteal Therapeutics, Inc., priority 2023, published 2025).
Read-outs that look alike come from different tables or passages of the source. *1 amine or outer side, *2 acyl side, *3 side chain or, on linkers, in order; H or OH if unused. Where a SMILES comes first, the peptide text is derived from it. Bridges are numbered along the chain shown (N, C = ends). [ ]: non-standard residue; d: D form. The star is where a group is joined. hTyr(3S-OH,4S-OH,3'-OSO3H) = N[C@H](C(=O)O)[C@H](O)[C@@H](O)c1ccc(O)c(OS(=O)(=O)O)c1; pTerphenylCO(4''-OnC5H11) = CCCCCOc1ccc(-c2ccc(-c3ccc(C(=O)*)cc3)cc2)cc1; Orn(4R-OH,5R-OH) = O=C([C@H](C[C@@H](O)[C@@H](O)N[*:3])N[*:1])[*:2]; hTyr(3S-OH,4S-OH) = N[C@H](C(=O)O)[C@H](O)[C@@H](O)c1ccc(O)cc1; Pro(3S-OH,4S-Me) = C[C@H]1CN[C@H](C(=O)O)[C@H]1O; X1 = CCCCCOc1ccc(-c2cc(-c3ccc(C(=O)*)cc3)no2)cc1; Gln(3R-OH) = NC(=O)C[C@@H](O)[C@H](N)C(=O)O; Hyp = O=C(O)[C@@H]1C[C@@H](O)CN1

Columns and labels:
[1] = systemic

| Molecule | Safe IV Concentration (Table 2 antibiotics) [mg/mL] | Safe Daily Dose ([1]; Table 2 antibiotics) | Safe IV Concentration (Table 3 antifungal agents) [mg/mL] | Safe Daily Dose ([1]; Table 3 antifungal agents) [mg] |
| --- | --- | --- | --- | --- |
| C[C@@H]1[C@H](O)[C@@H](C)/C=C/C=C/C=C/C=C/C=C/C=C/C=C/[C@H](O[C@@H]2O[C@H](C)[C@@H](O)[C@H](N)[C@@H]2O)C[C@@H]2O[C@](O)(C[C@@H](O)C[C@@H](O)[C@H](O)CC[C@@H](O)C[C@@H](O)CC(=O)O[C@H]1C)C[C@H](O)[C@H]2C(=O)O [Amphotericin B] | – | – | 0.25 | – |
| CCCCCOc1ccc(-c2ccc(-c3ccc(C(=O)N[C@H]4C[C@@H](O)[C@@H](O)NC(=O)[C@@H]5[C@@H](O)[C@@H](C)CN5C(=O)[C@H]([C@@H](C)O)NC(=O)[C@H]([C@H](O)[C@@H](O)c5ccc(O)cc5)NC(=O)[C@@H]5C[C@@H](O)CN5C(=O)[C@H]([C@@H](C)O)NC4=O)cc3)cc2)cc1 [Anidulafungin] ({pTerphenylCO(4''-OnC5H11)}-[Orn(4R-OH,5R-OH)]T[Hyp][hTyr(3S-OH,4S-OH)]T[Pro(3S-OH,4S-Me)]; lactam 1-C) | – | – | 1 | 200 |
| CC[C@H](C)C[C@H](C)CCCCCCCCC(=O)N[C@H]1C[C@@H](O)[C@@H](NCCN)NC(=O)[C@@H]2[C@@H](O)CCN2C(=O)[C@H]([C@H](O)CCN)NC(=O)[C@H]([C@H](O)[C@@H](O)c2ccc(O)cc2)NC(=O)[C@@H]2C[C@@H](O)CN2C(=O)[C@H]([C@@H](C)O)NC1=O [Caspofungin] | – | – | 0.5 | 70 |
| Cc1nnc(SCC2=C(C(=O)O)N3C(=O)[C@@H](NC(=O)Cn4cnnn4)[C@H]3SC2)s1 [Cefazolin] | 330 | 6 g/day | – | – |
| C[C@@H](c1nc(-c2ccc(C#N)cc2)cs1)[C@](O)(Cn1cncn1)c1cc(F)ccc1F [Isavuconazole] | – | – | 1.488 | 1116 |
| CCCCCOc1ccc(-c2cc(-c3ccc(C(=O)N[C@H]4C[C@@H](O)[C@@H](O)NC(=O)[C@@H]5[C@@H](O)[C@@H](C)CN5C(=O)[C@H]([C@H](O)CC(N)=O)NC(=O)[C@H]([C@H](O)[C@@H](O)c5ccc(O)c(OS(=O)(=O)O)c5)NC(=O)[C@@H]5C[C@@H](O)CN5C(=O)[C@H]([C@@H](C)O)NC4=O)cc3)no2)cc1 [Micafungin] (X1-[Orn(4R-OH,5R-OH)]T[Hyp][hTyr(3S-OH,4S-OH,3'-OSO3H)][Gln(3R-OH)][Pro(3S-OH,4S-Me)]; lactam 1-C) | – | – | 1.5 | 150 |
| CN[C@H](CC(C)C)C(=O)N[C@H]1C(=O)N[C@@H](CC(N)=O)C(=O)N[C@H]2C(=O)N[C@H]3C(=O)N[C@H](C(=O)N[C@H](C(=O)O)c4cc(O)cc(O)c4-c4cc3ccc4O)[C@H](O)c3ccc(c(Cl)c3)Oc3cc2cc(c3O[C@@H]2O[C@H](CO)[C@@H](O)[C@H](O)[C@H]2O[C@H]2C[C@](C)(N)[C@H](O)[C@H](C)O2)Oc2ccc(cc2Cl)[C@H]1O [Vancomycin] | 5 | 45 to 60 mg/kg/day | – | – |

The next lines start with results.

| Safe IV Concentration (Table 2 antibiotics) [mg/mL] | Safe Daily Dose ([1]; Table 2 antibiotics) | Molecule | Safe IV Concentration (Table 3 antifungal agents) [mg/mL] | Safe Daily Dose ([1]; Table 3 antifungal agents) [mg] |
| --- | --- | --- | --- | --- |
| 40 | 6 g/day | CO/N=C(\C(=O)N[C@@H]1C(=O)N2C(C(=O)[O-])=C(C[N+]3(C)CCCC3)CS[C@H]12)c1csc(N)n1 [Cefepime] | – | – |
| 2 | 1.2 g/day | O=C(O)c1cn(C2CC2)c2cc(N3CCNCC3)c(F)cc2c1=O [Ciprofloxacin] | – | – |
| 18 | 2.7 g/day | CCC[C@@H]1C[C@@H](C(=O)N[C@@H]([C@H]2O[C@H](SC)[C@H](O)[C@@H](O)[C@H]2O)[C@H](C)Cl)N(C)C1 [Clindamycin] | – | – |
| 0.2 | 7 mg/kg/day | Gentamicin | – | – |
